Test results: publication PMC7692735, “Bromo-Cyclobutenaminones as New Covalent UDP-N-Acetylglucosamine Enolpyruvyl Transferase (MurA) Inhibitors” (Pharmaceuticals, 2020)
Converted amounts (≈) assume the structure as drawn. “Also recorded” adds a separate entry of the source. Read-outs that look alike come from different tables or passages of the source.

How the values were obtained:
MurA (E. coli) [1] = target: T1, MurA (E. coli) (Escherichia coli, UniProt P0A749); assay: MurA assay, colorimetric malachite green method; assay type: biochemical; settings: for MurA inhibition in screening: 500 μM screening concentration
T1 construct: made in house; host or cells: E. coli
T1 sequence (P0A749 whole entry): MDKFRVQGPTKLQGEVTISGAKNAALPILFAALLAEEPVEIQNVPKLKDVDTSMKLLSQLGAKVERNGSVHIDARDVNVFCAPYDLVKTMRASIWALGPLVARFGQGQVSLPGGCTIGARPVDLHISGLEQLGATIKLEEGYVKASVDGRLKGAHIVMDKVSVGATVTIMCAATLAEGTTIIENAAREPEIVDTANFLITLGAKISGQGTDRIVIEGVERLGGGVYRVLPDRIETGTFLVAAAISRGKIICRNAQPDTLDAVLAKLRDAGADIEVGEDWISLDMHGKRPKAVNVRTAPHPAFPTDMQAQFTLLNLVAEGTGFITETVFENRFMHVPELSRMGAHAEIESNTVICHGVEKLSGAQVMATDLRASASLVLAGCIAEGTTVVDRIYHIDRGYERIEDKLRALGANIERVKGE
Method: MurAEC protein was recombinant, expressed in E. coli. The inhibition of MurA was monitored with the colorimetric malachite green method in which orthophosphate generated during the reaction is measured. MurA enzyme (E. coli) was pre-incubated with the substrate UNAG and compound for 30 min at 37 °C. The reaction was started by the addition of the second substrate PEP, resulting in a mixture with a final volume of 50 μL. The mixtures contained: 50 mM Hepes, pH 7.8, 0.005% Triton X-114, 200 μM UNAG, 100 μM PEP, purified MurA (diluted in 50 mM Hepes, pH 7.8) and 500 μM of each tested compound dissolved in DMSO. All compounds were soluble in the assay mixtures containing 5% DMSO (v/v). After incubation for 15 min at 37 °C, the enzyme reaction was terminated by adding Biomol® reagent (100μL) and the absorbance was measured at 650 nm after 5 min. All of the experiments were run in duplicate. Remaining activities (RAs) were calculated with respect to similar assays without the tested compounds and with 5% DMSO. The IC50 values, the concentration of the compound at which the remaining activity was 50%, were determined by measuring the remaining activities at seven different compound concentrations. The data are expressed as means of duplicate determinations, and the standard deviations were within 10% of the given values. A time-dependent inhibition assay was also performed. The IC50 values were determined at 0, 15 and 30 min of pre-incubation.

MurA (E. coli) [2] = target: T1, MurA (E. coli); settings: known MurA inhibitors, Figure 1; cited from earlier work
[3] = GSH reactivity assay (HPLC-MS); assay type: physicochemical; settings: 250 μM fragment, 5 mM glutathione, PBS pH 7.4, 5% MeCN
Method: (§1) The assay was adapted from our former publication.
(§2) For the glutathione assay, 500 μM solution of the fragment (PBS buffer pH 7.4, 10% MeCN, 250 μL) with 200 μM solution of indoprofen (Merck KGaA, Darmstadt, Germany) as internal standard was added to 10 mM glutathione (Merck KGaA, Darmstadt, Germany) solution (dissolved in PBS buffer, 250 μL) in a 1:1 ratio. The final concentration was 250 μM fragment, 100 μM indoprofen, 5 mM glutathione and 5% MeCN (500 μL). The final mixture was analyzed by HPLC-MS (Shimadzu LCMS-2020) after 0, 1, 2, 4, 20, 25, 48, 72 h time intervals. […] The AUC (area under the curve) values were determined via integration of HPLC spectra then corrected using the internal standard. […] The data are expressed as means of duplicate determinations, and the standard deviations were within 10% of the given values. […]
(§3) The reaction half-life for pseudo-first-order reactions is t1/2 = ln2/k, where k is the reaction rate. […] In our case, the corrected kdeg and keff (regarding blank and GSH-containing samples, respectively) can be calculated by linear regression of the data points of the kinetic measurements. The corrected kGSH is calculated by keff − kdeg, and finally, the half-life time is determined using the equation t1/2(GSH) = ln2/kGSH.

[4] = Aqueous stability assay in PBS buffer; assay type: physicochemical; settings: PBS buffer pH 7.4, room temperature; read-out: t1/2 aqueous degradation (converted)
Method: as §1, §2, §3

MurA Cys115 = assay: MS/MS of tryptic digested MurA, covalent labelling; assay type: binding, E. coli; settings: tryptic peptide amino acids 104–120
Method: The tryptic digestion method was adapted from our former publication.
Briefly, 50 μL of MurA (42 μM) and 10 μL 0.2% (w/v) RapiGest SF (Waters Corp., Milford, MA, USA) solution buffered with 50 mM ammonium bicarbonate (NH4HCO3) were mixed (pH = 7.8). 4.5 μL of 45 mM DTT (~200 nmol) in 100 mM NH4HCO3 was added and the mixture kept at 37.5 °C for 30 min. After cooling the sample to room temperature, 7.5 μL of 100 mM iodoacetamide (750 nmol) in 100 mM NH4HCO3 was added and the mixture placed in the dark at room temperature for 30 min. The reduced and alkylated protein was then digested by 10 μL (1 mg mL^−1) trypsin (the enzyme-to-protein ratio was 1:10) (Sigma, St Louis, MO, USA). The sample was incubated at 37 °C overnight. To degrade the surfactant, 7 μL of HCOOH (500 mM) solution was added to the digested […] sample to obtain the final 40 mM (pH ≈ 2) solution which was incubated at 37 °C for 45 min. For LC-MS analysis, the acid-treated sample was centrifuged for 5 min at 13,000 rpm.
A QTRAP 6500 triple quadruple—linear ion trap mass spectrometer, equipped with a Turbo V source in electrospray mode (AB Sciex Pte. Ltd., Framingham, MA, USA) and an Agilent 1100 Binary Pump HPLC system (Agilent Technologies, Waldbronn, Germany) equipped with an autosampler was used for LC-MS/MS analysis. […]

E. coli (ATCC 25922) = assay: Antimicrobial testing (MIC), broth microdilution; assay type: cell-based; settings: Escherichia coli, ATCC25922, positive control
Method: (§4) Antimicrobial testing was carried out by the broth microdilution method in 96-well plate format following the CLSI guidelines and European Committee for Antimicrobial Susceptibility Testing recommendations. Bacterial suspension of specific bacterial strain, equivalent to 0.5 McFarland turbidity standard, was diluted with cation-adjusted Mueller Hinton broth to obtain a final inoculum of 10^5 CFU/mL. Compounds dissolved in DMSO and inoculum were mixed together and incubated for 20–24 h at 37 °C. After incubation the minimal inhibitory concentration (MIC) values were determined by visual inspection as the lowest dilution of compounds showing no turbidity. The MICs were determined against S. aureus (ATCC 29213) and E. coli (ATCC 25922) bacterial strains. Tetracycline was used as a positive control on every assay plate, showing a MIC of 0.5 µg/mL and 1 µg/mL for S. aureus and E. coli, respectively.

S. aureus (ATCC 29213) = assay: Antimicrobial testing (MIC), broth microdilution; assay type: cell-based; settings: Staphylococcus aureus, ATCC29213, positive control
Method: as §4

MurA (E. cloacae) = system: MurA (E. cloacae); parameters: method as in PMID 24755374, PMID 25521652, PMID 11600375, PMID 30461051; settings: known MurA inhibitors, Figure 1; cited from earlier work
[5] = fragment 500 μM, 30 min preincubation at 37 °C
[6] = fragment 500 μM, 30 min preincubation at 37 °C, read-out: RA (remaining activity) at 500 µM
[7] = 30 min preincubation, read-out: IC50 (converted)

For “2-Bromo-4,4-dimethyl-3-(methylamino)cyclobut-2-en-1-one [15b]”, the “RA (remaining activity) at 500 µM” value (MurA (E. coli) [1]; [5]) was 91 ± 5%.

In the case of `C=C1C(=O)OCC1O` (racemic) [(±)-tulipaline B], the IC50 (MurA (E. coli) [2]) is listed as 2.2 µM.

Compound `CNC1=CC(=O)C1(C)C` [14a, 3-(Methylamino)-4,4-dimethylcyclobut-2-en-1-one] has a remaining activity at 500 µM (MurA (E. coli) [1]; [6]) of 93 ± 4%.

`CN(C)C1=CC(=O)C1(C)C` [14b, 3-(Dimethylamino)-4,4-dimethylcyclobut-2-en-1-one] showed a remaining activity at 500 µM (MurA (E. coli) [1]; [6]) of 99 ± 1%.

In the case of `CCN(CC)C1=CC(=O)C1(C)C` [14c, 3-(Diethylamino)-4,4-dimethylcyclobut-2-en-1-one], the remaining activity at 500 µM (MurA (E. coli) [1]; [6]) is reported as 96 ± 2%.

`COc1ccc(CN(C)C2=CC(=O)C2(C)C)cc1` [14d, 3-((4-Methoxybenzyl)(methyl)amino)-4,4-dimethylcyclobut-2-en-1-one] showed a remaining activity at 500 µM (MurA (E. coli) [1]; [6]) of 99 ± 3%.

`CN(CC(F)(F)F)C1=CC(=O)C1(C)C` [14e, 4,4-Dimethyl-3-(methyl(2,2,2-trifluoroethyl)amino)cyclobut-2-en-1-one] showed a remaining activity at 500 µM (MurA (E. coli) [1]; [6]) of 98 ± 7%.

`CNC1=C(Br)C(=O)C1(C)C` [15a, 2-Bromo-4,4-dimethyl-3-(methylamino)cyclobut-2-en-1-one] showed a remaining activity at 500 µM (MurA (E. coli) [1]; [6]) of 100 ± 7%.

In the case of `CCN(CC)C1=C(Br)C(=O)C1(C)C` [15c, 2-Bromo-3-(diethylamino)-4,4-dimethylcyclobut-2-en-1-one], the remaining activity at 500 µM (MurA (E. coli) [1]; [6]) is reported as 88 ± 6%.

For `COc1ccc(CN(C)C2=C(Br)C(=O)C2(C)C)cc1` [15d, 2-Bromo-3-((4-methoxybenzyl)(methyl)amino)-4,4-dimethylcyclobut-2-en-1-one], the IC50 (MurA (E. coli) [1]; [7]) was 363 µM, the “RA (remaining activity) at 500 µM” value (MurA (E. coli) [1]; [5]) was 13 ± 1% and the remaining activity at 500 µM (MurA (E. coli) [1]; read-out: RA (remaining activity) at 500 µM, fragment 500 μM, 30 min preincubation at 37 °C) was < 15%.

With `CN(CC(F)(F)F)C1=C(Br)C(=O)C1(C)C` [15e, 2-Bromo-4,4-dimethyl-3-(methyl(2,2,2-trifluoroethyl)amino)cyclobut-2-en-1-one] the “MurA inhibition in screening” value (MurA (E. coli) [1]) was “no effect” and the remaining activity at 500 µM (MurA (E. coli) [1]; [6]) was 84 ± 4%.

In the case of `CN(C(=O)c1ccccc1)C1=CC(=O)C1(C)C` [16a, N-(4,4-dimethyl-3-oxocyclobut-1-en-1-yl)-N-methylbenzamide], the remaining activity at 500 µM (MurA (E. coli) [1]; [6]) is reported as 99 ± 8%.

With `CN(C(=O)c1ccccc1)C1=C(Br)C(=O)C1(C)C` [17a, N-(2-bromo-4,4-dimethyl-3-oxocyclobut-1-en-1-yl)-N-methylbenzamide] the IC50 (MurA (E. coli) [1]; IC50, 30 min preincubation) was 138 µM, the remaining activity at 500 µM (MurA (E. coli) [1]; [6]) was 12 ± 3% and the “kGSH rate constant of conjugation with GSH” value [3] was 0.0128 M/min. The half-life at 250 μM [4] was 36.5 h and the “Covalent labelling site on MurA by MS/MS” value (MurA Cys115) was “labelled on Cys115; also recorded: labeling on Cys115”.

With `CC(=O)N(C)C1=C(Br)C(=O)C1(C)C` [17b, N-(2-bromo-4,4-dimethyl-3-oxocyclobut-1-en-1-yl)-N-methylacetamide] the IC50 (MurA (E. coli) [1]; 0 min preincubation, read-out: IC50 (converted)) was 356 ± 29 µM, the IC50 (MurA (E. coli) [1]; 15 min preincubation, read-out: IC50 (converted)) was 149 ± 15 µM and the IC50 (MurA (E. coli) [1]; [7]) was 128 µM. For the same compound, the remaining activity at 500 µM (MurA (E. coli) [1]; [6]) was 8 ± 2% and the “Covalent labelling site on MurA by MS/MS” value (MurA Cys115) was “labeling on Cys115”.

Work on `CN(C)[C@@H]1C(O)=C(C(N)=O)C(=O)[C@@]2(O)C(O)=C3C(=O)c4c(O)cccc4[C@@](C)(O)[C@H]3C[C@@H]12` [Tetracycline] yielded an MIC (E. coli (ATCC 25922)) of 1 µg/mL (≈ 2.25 µM) and an MIC (S. aureus (ATCC 29213)) of 0.5 µg/mL (≈ 1.13 µM).

In the case of `O=C1O/C(=C\c2cccc3ccccc23)C(O)=C1c1ccc(C(F)(F)F)cc1` [compound 5], the IC50 (MurA (E. coli) [2]) is listed as 39 µM.

In the case of `C=C(C(=O)O)[C@@H]1[C@@H](CCCCCCCC)OC(=O)[C@@H]1O` [compound 8], the IC50 (MurA (E. coli) [2]) is listed as 2.8 µM.

In the case of `C=Cc1cncs1` [compound 9], the IC50 (MurA (E. coli) [2]) is listed as 66 µM.

For `Ic1cncnc1` [compound 10], the IC50 (MurA (E. coli) [2]) is listed as 3.8 µM.

For `CCOC1=CC(=O)C1(C)C` [compound 12, 3-Ethoxy-4,4-dimethylcyclobut-2-en-1-one], the “MurA inhibition in screening” value (MurA (E. coli) [1]) was “to no avail” and the remaining activity at 500 µM (MurA (E. coli) [1]; [6]) was 98 ± 2%.

For `CC1=C(O)C(=O)[C@@H]2O[C@@H]2C1=O` [terreic acid], the IC50 (MurA (E. cloacae)) is listed as 14 µM.
